Laboratory results reported in paper PMC10020666, “Oxidation modulates LINGO2-induced inactivation of large conductance, Ca^2+-activated potassium channels” (The Journal of Biological Chemistry, 2023).
“Also recorded” adds a separate entry of the source. Read-outs that look alike come from different tables or passages of the source. Square brackets hold non-standard residues; d marks the D form. Peptide text beside a SMILES is read from it. Met(O) = CS(=O)CC[C@H](N)C(=O)O

Legend:
[1] = target: T1, BKα currents (BK channels) in HEK cell patches (Oryctolagus cuniculus, UniProt Q9BG98); assay: Inhibition of BKα currents by synthetic LINGO2 tail peptides (excised inside-out patch clamp); type: cell-based, rabbit; conditions: 1 μM Ca2+; for 95% Confidence Intervals of IC50Last5ms / IC50Last5ms increase compared to WT LINGO2 peptide: +160 mV; for IC50: step to +160 mV for 100 ms from -60 mV, inside-out patches, 37 °C, pH 7.2, Hill-Langmuir fit, mean ± SD; for Inactivation of BK currents by peptide: step to +160 mV, rate compared at 1 μM peptide; for IC50Last5ms increase compared to WT LINGO2 peptide: p < 0.001, extra sum of squares F-test
T1 construct: expressed in transfected cells; host or cells: HEK293 cells, transient transfection with lipofectamine (BKα cDNA plus GFP plasmid)
T1 sequence (Q9BG98 whole entry): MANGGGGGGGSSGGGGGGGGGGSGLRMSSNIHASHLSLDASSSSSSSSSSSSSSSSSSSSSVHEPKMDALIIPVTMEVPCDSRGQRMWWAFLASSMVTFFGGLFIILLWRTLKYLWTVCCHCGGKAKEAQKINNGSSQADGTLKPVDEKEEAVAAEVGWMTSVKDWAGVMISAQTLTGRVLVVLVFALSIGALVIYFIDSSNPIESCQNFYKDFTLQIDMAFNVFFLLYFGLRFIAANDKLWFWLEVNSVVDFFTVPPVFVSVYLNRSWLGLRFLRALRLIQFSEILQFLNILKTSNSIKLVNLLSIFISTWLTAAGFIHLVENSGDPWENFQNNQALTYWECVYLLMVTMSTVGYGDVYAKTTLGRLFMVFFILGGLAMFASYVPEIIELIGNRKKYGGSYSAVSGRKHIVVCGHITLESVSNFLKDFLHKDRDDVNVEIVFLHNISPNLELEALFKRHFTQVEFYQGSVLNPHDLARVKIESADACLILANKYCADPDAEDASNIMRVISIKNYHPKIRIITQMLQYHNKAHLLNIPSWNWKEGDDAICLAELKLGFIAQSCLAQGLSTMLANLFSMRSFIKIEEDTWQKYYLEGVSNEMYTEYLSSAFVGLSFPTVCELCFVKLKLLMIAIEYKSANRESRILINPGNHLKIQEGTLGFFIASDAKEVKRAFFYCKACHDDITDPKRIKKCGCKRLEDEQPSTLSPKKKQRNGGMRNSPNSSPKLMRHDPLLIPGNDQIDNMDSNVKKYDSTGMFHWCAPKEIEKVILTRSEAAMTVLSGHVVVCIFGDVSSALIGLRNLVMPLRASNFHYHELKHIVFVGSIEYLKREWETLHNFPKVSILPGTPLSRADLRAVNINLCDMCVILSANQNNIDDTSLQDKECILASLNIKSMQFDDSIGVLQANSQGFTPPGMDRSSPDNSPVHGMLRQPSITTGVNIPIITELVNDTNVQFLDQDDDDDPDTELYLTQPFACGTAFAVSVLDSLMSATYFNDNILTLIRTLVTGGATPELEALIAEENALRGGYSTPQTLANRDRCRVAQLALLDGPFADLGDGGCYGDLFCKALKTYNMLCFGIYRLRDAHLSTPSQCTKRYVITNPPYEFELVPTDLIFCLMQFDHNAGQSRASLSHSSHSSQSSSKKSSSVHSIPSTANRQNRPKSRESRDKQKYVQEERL
Protocol: (§1) All excised patch experiments were performed at 37 °C in 140 mM symmetrical K^+ solutions which contained 140 mM KCl, 10 mM glucose, 10 mM Hepes, and either 1 mM ethylene glycol-bis(β-amino ether)-N,N,N′,N′-tetraacetic acid (EGTA (for free [Ca^2+] 100 nM to 300 nM) or 1 mM hydroxyethylethylenediaminetriacetic acid (HEDTA for free [Ca^2+] 1 μM to 10 μM) and the pH of all solutions was adjusted to 7.2 with KOH. These solutions were made with double-distilled, deionized, filtered water from a MilliQ water purification system. The pipette solution contained 100 nM free Ca^2+. We used “Chelator” (https://www.ru.nl/animal/research/chelator/) to calculate the total amount of Ca^2+ required, as per Schoenmakers et al., ([40]) and free Ca^2+ concentrations were checked with a Ca^2+ sensitive electrode.
(§2) During experiments, the dish containing HEK cells was superfused with Hanks solution, which contained (in mM) 129.8 Na^+, 5.8 K^+, 135 Cl^-, 4.17 HCO3^-, 0.34 HPO4^2-, 0.44 H2PO4^-, 1.8 Ca^2+, 0.9 Mg^2+, 0.4 SO4^2-, 10 glucose, 2.9 sucrose, and 10 Hepes, and its pH was adjusted to 7.4 with NaOH. In addition, the patch under study was continuously superfused by means of a close delivery system consisting of a pipette (tip diameter 200 μm) placed approximately 300 μm away from the cell. This could be switched, with a dead-space time of around 5 s, to a solution containing a drug.
(§3) Electrodes were pulled from Corning borosilicate glass (1.5 mm O.D. × 0.86 mm I.D.) using a Sutter P-97 pipette puller and fire polished using a Narashige MF 83 microforge. Pipettes had resistances of 2 to 5 MΩ when filled with recording solutions and series resistance was compensated by up to 80%. Standard single-channel patch clamp recording methods were used. Voltage clamp commands were delivered via an Axopatch 200B patch clamp amplifier (Axon Instruments) connected to a Digidata 1322A AD/DA converter (Axon Instruments) interfaced to computers running pClamp software (Axon Instruments). Data was acquired at 100 KHz and filtered at 2 KHz or 5 KHz. Patches were held at either −60 mV or −100 mV and depolarized in 20 mV increments to 200 mV. Residual capacitance and leakage currents were subtracted using either a P/4 protocol or offline by manual leak subtraction.
(§4) The human LINGO2 transcript used [NM_001354575.2] was untagged in a pcDNA 3.1 vector (VectorBuilder). The α subunit of the rabbit BK channel was isolated from rabbit urethral smooth muscle and cloned using the pcDNA TOPO DNA cloning kit (Life Technologies). The identifiesd transcript corresponded to the ZERO variant of mouse BKα and to variant 2 (NM_002247.3) of human BKα. We used 100 ng ml^−1 cDNA for BKα only transfections, whereas a 100:500 ng ml^−1 cDNA ratio was used for BKα:LINGO2 and BKα:LINGO1 cotransfections for inside-out patch recordings. GFP (150 ng ml^−1) was included in all transfections except those used for Figure 2, C and D. cDNA was transiently transfected into HEK cells using lipofectamine. Site-directed mutagenesis used the Phusion kit (Thermo Fisher Scientific) method ([41]) and all mutations were confirmed by sequencing.
(§5) HEK293 cells were cultured in Dulbecco's modified Eagle's medium + MEM media containing 10% fetal bovine serum and 1% Penicillin-Streptomycin antibiotics at 37 °C, and 95% humidifying incubator containing 5% CO2. Subculturing was done by 0.05% Trypsin-EDTA solution.
Concentration–effect data were fitted with a Hill–Langmuir equation:[4] I/Icontrol=1/{1+10^ˆ(log[Drug]−logIC50)} where, I was the current recorded in the drug, Icontrol was the current in the absence of drug, IC50 was the half-maximal effective concentration, and [Drug] was the concentration variable.
All data is presented as mean ± SD and was analyzed with Prism software (GraphPad). Individual data points are also shown in bar charts. […]

BK:LINGO2 channels = assay: Effect of oxidizing/reducing agents on BK:LINGO2 currents (inside-out patch, step to +160 mV); type: cell-based, rabbit BKα, human LINGO2
Protocol: as §1, §2, §3, §4, §5
All data is presented as mean ± SD and was analyzed with Prism software (GraphPad). Individual data points are also shown in bar charts. Statistical differences were assessed using either paired or unpaired nonparametric tests (Wilcoxin signed-rank test, Mann–Whitney test), or the extra sum of squares F-test, as appropriate. Comparisons of three or more nonparametric data sets used Friedman’s test followed by Dunn’s test for multiple comparisons, whereas ANOVA was used for three or more parametric data sets. p < 0.05 was taken as significant.

[2] = target: α subunit of the rabbit BK channel (large conductance, Ca2+ and voltage-activated K+ channel) (rabbit)
[3] = n = 5 (M605 oxidized), 6 (M603 oxidized), 7 (both), read-out: IC50Last5ms (half maximal block of current amplitude in last 5 ms of pulse)

For `CC[C@H](C)[C@H](NC(=O)[C@H](CC[S+](C)[O-])NC(=O)[C@H](CCCCN)NC(=O)[C@H](CCSC)NC(=O)[C@H](CC(N)=O)NC(=O)[C@H](Cc1ccccc1)NC(=O)[C@H](CCCNC(=N)N)NC(=O)[C@H](CCCNC(=N)N)NC(C)=O)C(N)=O` (stereo partly drawn) [Ac-RRFNMKM(O)I-NH2] (Ac-RRFNMK[Met(O)]I-NH2), the “95% Confidence Intervals of IC50Last5ms” value ([1]; n = 5-7) was 2000 to 2700 nM, the IC50 [1, 3] was 2300 ± 700 nM and the “Inactivation of BK currents by peptide” value [1] was “the rate of inactivation was slower compared to that observed with the WT peptide”.

`O[C@@H](CS)[C@@H](O)CS` [DTT] was tested, and the “Effect of DTT alone on peak or sustained currents” value (BK:LINGO2 channels; 100 μM DTT, 1-5 min, 100 nM Ca2+, 5 to 7 experiments) was “failed to alter the peak (black circles) or sustained (purple diamonds) currents”, the “Prevention of Ch-T effects by DTT pretreatment / continuous presence” value (BK:LINGO2 channels; 100 μM DTT, then with Ch-T 5-7 min, 100 nM Ca2+, 5 to 7 experiments) was “not prevented; also recorded: the effects of Ch-T were unaltered in the continuous presence of DTT; also recorded: resistant to treatment with the cysteine-specific reducing agent DTT” and the “Reversal of Ch-T effects by DTT coapplication” value (BK:LINGO2 channels; 200 μM Ch-T 1-4 min, then Ch-T + DTT 4-7 min, 4 to 7 experiments) was “unable to reverse the effects of Ch-T”.

Ac-RRFNMKMI-NH2 [Ac-RRFNMKMI-NH2] was tested, and the “95% Confidence Intervals of IC50Last5ms” value ([1]; n = 6) was 223 to 303 nM, the IC50 ([1]; n = 6, read-out: IC50Last5ms (half maximal block of current amplitude in last 5 ms of pulse)) was 260 ± 78 nM and the “Inactivation of BK currents by peptide” value [1] was “caused inactivation, the rate of which was concentration-dependent”.

With `CC[C@H](C)[C@H](NC(=O)[C@H](CC[S+](C)[O-])NC(=O)[C@H](CCCCN)NC(=O)[C@H](CC[S+](C)[O-])NC(=O)[C@H](CC(N)=O)NC(=O)[C@H](Cc1ccccc1)NC(=O)[C@H](CCCNC(=N)N)NC(=O)[C@H](CCCNC(=N)N)NC(C)=O)C(N)=O` (stereo partly drawn) [Ac-RRFNM(O)KM(O)I-NH2] (Ac-RRFN[Met(O)]K[Met(O)]I-NH2) the “IC50Last5ms increase compared to WT LINGO2 peptide” value [1] was roughly 50 fold, the IC50 [1, 3] was 13900 ± 1100 nM and the “Inactivation of BK currents by peptide” value [1] was “greatly reduced”. For the same molecule, the “Inactivation of BK currents by peptide” value ([1]; listed as RRFNM(O)KM(O)I) was “inactivation was practically abolished at all concentrations tested” and the “Inactivation of BK currents by peptide” value ([1]; listed as peptide containing Met(O) at both positions) was “time-dependent inactivation was practically abolished”.

For `CC[C@H](C)[C@H](NC(=O)[C@H](CCSC)NC(=O)[C@H](CCCCN)NC(=O)[C@H](CC[S+](C)[O-])NC(=O)[C@H](CC(N)=O)NC(=O)[C@H](Cc1ccccc1)NC(=O)[C@H](CCCNC(=N)N)NC(=O)[C@H](CCCNC(=N)N)NC(C)=O)C(N)=O` (stereo partly drawn) [Ac-RRFNM(O)KMI-NH2] (Ac-RRFN[Met(O)]KMI-NH2), the “IC50Last5ms increase compared to WT LINGO2 peptide” value [1] was roughly 27 fold, the IC50 [1, 3] was 6900 ± 500 nM and the “Inactivation of BK currents by peptide” value [1] was “slower than that of the WT peptide”.

B1: LINGO2 tail peptide Ac-RRFNM(O)KMI-NH2 (peptide)
peptide: Ac-RRFN[Met(O)]KMI-NH2
SMILES: CC[C@H](C)[C@H](NC(=O)[C@H](CCSC)NC(=O)[C@H](CCCCN)NC(=O)[C@H](CCS(C)=O)NC(=O)[C@H](CC(N)=O)NC(=O)[C@H](Cc1ccccc1)NC(=O)[C@H](CCCNC(=N)N)NC(=O)[C@H](CCCNC(=N)N)NC(C)=O)C(N)=O
For B1, the IC50Last5ms: concentration of the peptide that produced half maximal block in BKα current amplitude in the last 5 ms of a pulse to +160 mV (inside-out HEK patches, 1 μM Ca2+) [2] was 6900 nM.

B2: LINGO2 tail peptide Ac-RRFNM(O)KM(O)I-NH2 (peptide)
peptide: Ac-RRFN[Met(O)]K[Met(O)]I-NH2
SMILES: CC[C@H](C)[C@H](NC(=O)[C@H](CCS(C)=O)NC(=O)[C@H](CCCCN)NC(=O)[C@H](CCS(C)=O)NC(=O)[C@H](CC(N)=O)NC(=O)[C@H](Cc1ccccc1)NC(=O)[C@H](CCCNC(=N)N)NC(=O)[C@H](CCCNC(=N)N)NC(C)=O)C(N)=O
For B2, the IC50Last5ms: concentration of the peptide that produced half maximal block in BKα current amplitude in the last 5 ms of a pulse to +160 mV (inside-out HEK patches, 1 μM Ca2+) [2] was 13900 nM.

B3: LINGO2 tail peptide Ac-RRFNMKMI-NH2 (peptide)
peptide: Ac-RRFNMKMI-NH2
B3 showed an IC50Last5ms: concentration of the peptide that produced half maximal block in BKα current amplitude in the last 5 ms of a pulse to +160 mV (inside-out HEK patches, 1 μM Ca2+) [2] of 260 nM.

B4: LINGO2 tail peptide Ac-RRFNMKM(O)I-NH2 (peptide)
peptide: Ac-RRFNMK[Met(O)]I-NH2
SMILES: CC[C@H](C)[C@H](NC(=O)[C@H](CCS(C)=O)NC(=O)[C@H](CCCCN)NC(=O)[C@H](CCSC)NC(=O)[C@H](CC(N)=O)NC(=O)[C@H](Cc1ccccc1)NC(=O)[C@H](CCCNC(=N)N)NC(=O)[C@H](CCCNC(=N)N)NC(C)=O)C(N)=O
Molecule B4 has an IC50Last5ms: concentration of the peptide that produced half maximal block in BKα current amplitude in the last 5 ms of a pulse to +160 mV (inside-out HEK patches, 1 μM Ca2+) [2] of 2300 nM.
